Literature values, collected in publication PMC7178755 (Toxicology and applied pharmacology, 2019).
Like-named read-outs stand apart in the source and are kept apart here. Marks after values point to notes of the source that are not given here.

Key:
[1] = free BPA; female SD rats; 0.1 mg/kg gavage; ref Dorege et al., (2010); cited from earlier work
[2] = free BPA; female Rhesus Monkeys; 0.4 mg/kg oral; ref Taylor et al., (2015); cited from earlier work
[3] = free BPA; female CD-1 mice; 100 mg/kg gavage; ref Taylor et al., (2015); cited from earlier work
[4] = rat uterotrophic assay; administered orally; ref Conley et al., 2016; cited from earlier work
[5] = rat, in vivo, 100 mg/kg; cited from earlier work

SMILES	AUC0−∞ [1]	Cmax [1] [nM]	Dose-normalized AUC0−∞ [1]	Dose-normalized Cmax [1]	AUC0−∞ [2]	Cmax [2] [nM]	Half-life (terminal, beta) [2] [h]	Tmax [2] [h]	AUC0−∞ [3]	Cmax [3] [nM]	Dose-normalized AUC0−∞ [3]	Dose-normalized Cmax [3]	Tmax [3] [h]	ED50 [4] [mg/kg/day]	time of maximum plasma concentration [5] [min]
CC(C)(c1ccc(O)cc1)c1ccc(O)cc1 [BPA, bisphenol A]	0.0026^g nmol.h/mL	0.39	5.91 (nmol.h/mL)/(mmol/kg)	0.886 (nmol/mL)/(mmol/kg)	0.0589^i nmol.h/mL	17.3	8.88	1	13.1^i nmol.h/mL	4160	29.8 (nmol.h/mL)/(mmol/kg)	9.47 (nmol/mL)/(mmol/kg)	1	1118.0	–
O=C(O)[C@H]1O[C@@H](Oc2ccc(C(c3ccc(O)cc3)(C(F)(F)F)C(F)(F)F)cc2)[C@H](O)[C@@H](O)[C@@H]1O [BPAF-glucuronide]	–	–	–	–	–	–	–	–	–	–	–	–	–	–	30
